Test results as given in patent US5214054A, “Azacyclic carboxylic acid derivatives and their preparation and use” (Novo Nordisk A/S, priority 1988, dated 1993).
Where a name gives a salt, the structure may show the parent alone.

Tested on: [^3 H]-GABA uptake
Experiment: in vitro inhibition of [^3 H]-GABA uptake
Type: biochemical
Conditions: Male Wistar rat cortical tissue, 60 min, 30° C., pH 7.5, ligand 0.2 nM
Description: The in vitro inhibition of [^3 H]-GABA uptake was assessed essentially by the method of Fjalland (Acta Pharmacol. Toxicol. 42 (1978) 73-76). Male Wistar rat cortical tissue was gently homogenized by hand using a glass teflon homogenizer in 10 volumes of 0.32M sucrose. Incubation was performed in a 40 mM tris HCl buffer (pH 7.5 at 30° C.) containing […], […], 4 mM MgSO4, 2.3 mM CaCl2 and 10 mM glucose, for 60 min. at 30° C. Ligand concentration was 0.2 nM.

| IC50 | Compound |
| --- | --- |
| 82 nM | O=C(O)[C@@H]1CCCN(CCON=C(c2ccccc2)c2ccccc2)C1 [Example 1, (R)-Diphenylmethanone O-[2-(3-carboxypiperidin-1-yl)ethyl]oxime] |
| 44 nM | Cc1ccccc1C(=NOCCN1CCC[C@@H](C(=O)O)C1)c1sccc1C [Example 2, (R)-(2-Methylphenyl)-(3-methyl-2-thienyl)methanone O-[2-(3-carboxypiperidin-1-yl)ethyl]oxime hydrochloride] |
| 30 nM | Cc1ccsc1C(=NOCCN1CCC[C@@H](C(=O)O)C1)c1sccc1C [Example 3, (R)-Bis(3-methyl-2-thienyl)methanone O-[2-(3-carboxypiperidin-1-yl)ethyl]oxime hydrochloride] |
| 52 nM | CCc1ccccc1C(=NOCCN1CCC[C@@H](C(=O)O)C1)c1sccc1C [Example 4, (R)-(2-Ethylphenyl)-(3-methyl-2-thienyl)methanone O-[2-(3-carboxypiperidin-1-yl)ethyl]oxime hydrochloride] |
| 64 nM | Cc1ccsc1C(=NOCCN1CCC[C@@H](C(=O)O)C1)c1cccs1 [Example 5, (R)-(3-Methyl-2-thienyl)-(2-thienyl)methanone O-[2-(3-carboxypiperidin-1-yl)ethyl]oxime] |
| 138 nM | O=C(O)C1CCCN(CCON=C(c2ccccc2)c2ccccc2)C1 (centres unmarked) [Example 25, Diphenylmethanone O-[2-(3-carboxypiperidin-1-yl)ethyl]oxime hydrochloride] |
| 58 nM | Cc1ccccc1C(=NOCCN1CCCC(C(=O)O)C1)c1sccc1C (centres unmarked) [Example 26, (2-Methylphenyl)-(3-methyl-2-thienyl)methanone O-[2-(3-carboxypiperidin-1-yl)ethyl]oxime hydrochloride] |
| 48 nM | O=C(O)C1=CCCN(CCON=C(c2ccccc2)c2ccccc2)C1 [Example 45, Diphenylmethanone O-[2-(3-carboxy-1,2,5,6-tetrahydropyridin-1-yl)ethyl]oxime] |
| 59 nM | Cc1ccsc1C(=NOCCN1CCC=C(C(=O)O)C1)c1sccc1C [Example 46, Bis(3-methyl-2-thienyl)methanone O-[2-(3-carboxy-1,2,5,6-tetrahydropyridin-1-yl)ethyl]oxime hydrochloride] |
| 51 nM | Cc1ccsc1C(=NOCCN1CCC[C@H](C(=O)O)C1)c1sccc1C [Example 47, (S)-Bis(3-methyl-2-thienyl)methanone O-[2-(3-carboxypiperidin-1-yl)ethyl]oxime hydrochloride] |
| 217 nM | O=C(O)[C@@H]1CCCN(CCON=CC(c2ccccc2)c2ccccc2)C1 [Example 83, E/Z-(R)-2,2-Diphenylacetaldehyde O-[2-(3-carboxy-piperidin-1-yl)ethyl]oxime hydrochloride] |

Tested on: not given
Experiment: not given
Conditions: background art; cited from earlier work

| Compound | ability to cross the blood-brain barrier (in words) |
| --- | --- |
| O=C(O)C1CCCNC1 (centres unmarked) [piperidine-3-carboxylic acid] | unable to cross the blood-brain b arrier |

Tested on: GABA uptake
Experiment: not given
Conditions: background art; cited from earlier work

| Compound | inhibition of GABA re-uptake / uptake (in words) |
| --- | --- |
| O=C(O)C1CCCN(CCC=C(c2ccccc2)c2ccccc2)C1 (centres unmarked) [SK&F 89976A, N-(4,4-diphenyl-3-buten-1-yl)nipecotic acid] | oral inhibitors of GABA uptake |
| O=C(O)C1=CCCN(CCC=C(c2ccccc2)c2ccccc2)C1 [SK&F 100330A, N-(4,4-diphenyl-3-buten-l-yl)guvacine] | oral inhibitors of GABA uptake |
| O=C(O)CC1CCN(CCC=C(c2ccccc2)c2ccccc2)C1 (stereo not drawn) [SK&F 100561, N-(4,4-diphenyl-3-buten-1-yl)homo-β-proline] | oral inhibitors of GABA uptake |
| O=C(O)C1CCCN(CCC=C(c2ccccc2)c2cccs2)C1 (centres unmarked) [SK&F 100604J, N-(4-phenyl-4-(2-thienyl)-3-buten-1-yl)nipecotic acid] | oral inhibitors of GABA uptake |
| O=C(O)C1CCCNC1 (centres unmarked) [piperidine-3-carboxylic acid] | potent inhibitor of GABA re-uptake |
